In patent publication US10131702B2, “Glucagon-GLP-1-GIP triple agonist compounds” (priority 2013, dated 2018):
Like-named read-outs stand apart in the source and are kept apart here. Peptide text beside a SMILES is read from it.

T1: human GIP R (Homo sapiens, UniProt P48546)
T1 construct: expressed in transfected cells
T1 sequence (P48546 22-466): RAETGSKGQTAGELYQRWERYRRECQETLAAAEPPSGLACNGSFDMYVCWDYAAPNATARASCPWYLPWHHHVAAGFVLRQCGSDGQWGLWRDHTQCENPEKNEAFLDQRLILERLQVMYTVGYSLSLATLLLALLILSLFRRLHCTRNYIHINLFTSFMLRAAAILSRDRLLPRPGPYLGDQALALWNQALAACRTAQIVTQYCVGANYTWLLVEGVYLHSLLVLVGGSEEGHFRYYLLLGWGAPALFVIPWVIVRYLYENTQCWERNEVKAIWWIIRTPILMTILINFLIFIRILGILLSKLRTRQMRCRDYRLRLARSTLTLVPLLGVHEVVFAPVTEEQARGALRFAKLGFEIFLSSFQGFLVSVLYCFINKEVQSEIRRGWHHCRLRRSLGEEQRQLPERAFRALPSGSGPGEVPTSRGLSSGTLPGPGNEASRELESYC


What was measured:
[1] = biological target: T1, human GIP R; test: cAMP induction in HEK293 cells expressing human GIP R (AlphaScreen cAMP kit); format: cell-based; conditions: read-out: GIP R (EC50 in nM)
[2] = in vivo; set-up: species or system C57BL/6J mice; conditions: male, C57BL/6J, mouse, iv, 200 nmol/kg
Excerpt: Pharmacokinetics of Selected Compounds in Mice Method C57BL/6J mice (males with a body weight of approximately 25 g) were given a single intravenous (i.v.) bolus of each peptide to be tested. […] Blood samples were drawn by sublingual bleeding. The dosing vehicle was a phosphate buffer containing mannitol (pH 7.5). At each sampling time point, samples from two mice were drawn, i.e. 16 mice were included for each compound. The mice were euthanized immediately after blood sampling by cervical dislocation. Plasma samples were analyzed after solid phase extraction (SPE) or precipitation by liquid chromatography mass spectrometry (LC-MS/MS). Mean plasma concentrations were used for calculation of the pharmacokinetic parameters using the non-compartmental approach in Phoenix WinNonlin 6.3. Plasma terminal elimination half-life (T½) was determined as […] where λz is the magnitude of the slope of the log linear regression of the log concentration versus time profile during the terminal phase.

[3] = biological target: T2, human GCG R (Homo sapiens, UniProt P47871); test: cAMP induction in HEK293 cells expressing human GCG R (AlphaScreen cAMP kit); format: cell-based; conditions: Table 2; average EC50, cAMP, HEK293 cells expressing human GCG R; read-out: GCG R (EC50 in nM)
T2 construct: expressed in transfected cells
Experimental: (§1) Briefly, HEK293 cells expressing the human GIP R, GLP-1 R or GCG R (stable cell lines generated through transfection of the cDNA for human GIP R, GLP-1 R or GCG R and selection of stable clones) were seeded at 30,000 cells/well in 96-well microtiter plates coated with 0.01% poly-L-lysine, and grown for 1 day in culture in 200 μl growth medium (DMEM, 10% FCS, Penicillin (100 IU/ml), Streptomycin (100 μg/ml)). On the day of analysis, growth medium was removed and the cells were washed once with 150 μl Tyrode's buffer (Tyrode's Salts (9.6 g/l), 10 mM HEPES, pH 7.4). […] The Assay buffer was removed and cells are lysed in 80 μl Lysis buffer (0.1% w/v BSA, 5 mM HEPES, 0.3% v/v Tween-20) per well. From each well 10 μl of lysed cells were transferred to a 384-well plate and mixed with 15 μl bead-mix (1 Unit/15 μl anti-cAMP Acceptor Beads, 1 Unit/15 μl Donor Beads, and 1 Unit/15 μl Biotinylated cAMP in Assay Buffer). The plates were mixed and incubated in the dark for an hour at room temperature before measuring using an Envision™ plate reader (Perkin-Elmer).
(§2) The resulting cAMP curves were plotted as absolute cAMP concentrations (nM) over log (test compound concentration) and analyzed using the curve fitting program XLfit.
(§3) Parameters calculated to describe both the potency as well as the agonistic activity of each test compound on the receptors were:
(§4) EC50, a concentration resulting in a half-maximal elevation of cAMP levels, reflecting the potency of the test compound.

[4] = biological target: T3, human GLP-1 R (Homo sapiens, UniProt P43220); test: cAMP induction in HEK293 cells expressing human GLP-1 R (AlphaScreen cAMP kit); format: cell-based; conditions: average EC50, cAMP, HEK293 cells expressing human GLP-1 R, read-out: GLP1 R (EC50 in nM)
T3 construct: expressed in transfected cells
Experimental: as §1, §2, §3, §4

[5] = biological target: human GIP receptor (human) (UniProt P48546); test: cell-based or functional assay
[6] = biological target: human glucagon-like peptide 1 receptor (human) (UniProt P43220); test: cell-based or functional assay
[7] = biological target: human glucagon receptor (human) (UniProt P47871); test: cell-based or functional assay
[8] = biological target: human GIP receptor (human) (UniProt P48546); test: cell-based or functional assay; remark: listed apart in the source
[9] = biological target: human glucagon-like peptide 1 receptor (human) (UniProt P43220); test: cell-based or functional assay; remark: listed apart in the source
[10] = Table 2b (most comprehensive data), average EC50, cAMP
[11] = Table 2b (most comprehensive data)

T3 sequence (P43220 24-463): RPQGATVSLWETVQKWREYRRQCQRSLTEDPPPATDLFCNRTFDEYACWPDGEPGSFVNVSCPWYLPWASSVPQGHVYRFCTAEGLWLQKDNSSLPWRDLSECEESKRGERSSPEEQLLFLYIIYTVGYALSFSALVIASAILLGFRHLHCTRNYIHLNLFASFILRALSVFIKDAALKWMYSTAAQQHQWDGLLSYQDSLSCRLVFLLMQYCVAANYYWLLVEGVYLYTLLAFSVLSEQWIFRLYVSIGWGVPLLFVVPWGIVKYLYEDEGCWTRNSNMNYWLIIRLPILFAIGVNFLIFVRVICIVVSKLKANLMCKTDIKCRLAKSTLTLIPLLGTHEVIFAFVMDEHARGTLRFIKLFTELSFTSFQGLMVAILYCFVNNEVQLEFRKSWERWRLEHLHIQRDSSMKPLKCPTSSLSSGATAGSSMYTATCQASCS
human glucagon-like peptide 1 receptor (human), sequence (P43220 24-463): as above
T2 sequence (P47871 26-477): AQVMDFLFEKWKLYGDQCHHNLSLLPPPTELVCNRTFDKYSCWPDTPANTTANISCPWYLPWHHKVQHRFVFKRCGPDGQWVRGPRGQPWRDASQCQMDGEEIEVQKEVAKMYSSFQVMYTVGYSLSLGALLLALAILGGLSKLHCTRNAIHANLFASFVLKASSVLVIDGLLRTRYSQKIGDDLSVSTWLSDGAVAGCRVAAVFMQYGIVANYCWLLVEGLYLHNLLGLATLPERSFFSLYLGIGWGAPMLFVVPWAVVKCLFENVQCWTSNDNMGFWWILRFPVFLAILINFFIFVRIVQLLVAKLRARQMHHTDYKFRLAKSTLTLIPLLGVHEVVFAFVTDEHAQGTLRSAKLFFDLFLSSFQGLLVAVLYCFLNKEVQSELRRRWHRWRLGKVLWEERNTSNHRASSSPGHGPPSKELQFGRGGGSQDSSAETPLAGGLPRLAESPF
human glucagon receptor (human), sequence (P47871 26-477): as above

Molecule	EC50 ([1]; Table 2, average EC50, cAMP)	EC50 [1, 10]	half-life [2]	EC50 [3]	EC50 ([4]; Table 2)	EC50 [4, 11]	EC50 (cAMP induction) [5]	EC50 (cAMP induction) [6]	EC50 (cAMP induction) [7]	EC50 (cAMP induction) [8]	EC50 (cAMP induction) [9]
CCCCCCCCCCCCCCCC(=O)N[C@@H](CCC(=O)NCCCC[C@H](NC(=O)[C@H](CCC(=O)O)NC(=O)[C@H](CC(=O)O)NC(=O)[C@H](CC(C)C)NC(=O)[C@H](Cc1ccc(O)cc1)NC(=O)[C@@H](NC(=O)[C@H](CO)NC(=O)[C@H](Cc1ccc(O)cc1)NC(=O)[C@H](CC(=O)O)NC(=O)[C@H](CO)NC(=O)[C@@H](NC(=O)[C@H](Cc1ccccc1)NC(=O)[C@@H](NC(=O)CNC(=O)[C@H](CCC(N)=O)NC(=O)C(C)(C)NC(=O)[C@@H](N)Cc1ccc(O)cc1)[C@@H](C)O)[C@@H](C)O)[C@@H](C)CC)C(=O)N[C@@H](C)C(=O)N[C@@H](C)C(=O)N[C@@H](Cc1c[nH]cn1)C(=O)N[C@@H](CC(=O)O)C(=O)N[C@@H](Cc1ccccc1)C(=O)N[C@H](C(=O)N[C@@H](CCC(=O)O)C(=O)N[C@@H](Cc1c[nH]c2ccccc12)C(=O)N[C@@H](CC(C)C)C(=O)N[C@@H](CC(C)C)C(=O)N[C@@H](CO)C(=O)N[C@@H](C)C(N)=O)C(C)C)C(=O)O [Compound 28] (HELM PEPTIDE1{Y.[Aib].Q.G.T.F.T.S.D.Y.S.I.Y.L.D.E.K.A.A.H.D.F.V.E.W.L.L.S.A.[am]}|PEPTIDE2{[CCCCCCCCCCCCCCCC(=O)[*:2]].[gGlu]}$PEPTIDE1,PEPTIDE2,17:R3-2:R2$$$V2.0)	0.054 nM	0.058 nM	7.8 h	0.16 nM	0.058 nM	0.16 nM	–	–	–	–	–
CCCCCCCCCCCCCCCC(=O)N[C@@H](CCC(=O)NCCCC[C@H](NC(=O)[C@H](CCCCN)NC(=O)[C@H](CCC(=O)O)NC(=O)[C@H](CC(C)C)NC(=O)[C@H](Cc1ccc(O)cc1)NC(=O)[C@@H](NC(=O)[C@H](CO)NC(=O)[C@H](Cc1ccc(O)cc1)NC(=O)[C@H](CC(=O)O)NC(=O)[C@H](CO)NC(=O)[C@@H](NC(=O)[C@H](Cc1ccccc1)NC(=O)[C@@H](NC(=O)CNC(=O)[C@H](CCC(N)=O)NC(=O)C(C)(C)NC(=O)[C@@H](N)Cc1ccc(O)cc1)[C@@H](C)O)[C@@H](C)O)[C@@H](C)CC)C(=O)N[C@@H](C)C(=O)N[C@@H](C)C(=O)N[C@@H](CCCCN)C(=O)N[C@@H](CCC(=O)O)C(=O)N[C@@H](Cc1ccccc1)C(=O)N[C@H](C(=O)N[C@@H](CCC(=O)O)C(=O)N[C@@H](Cc1c[nH]c2ccccc12)C(=O)N[C@@H](CC(C)C)C(=O)N[C@@H](CC(C)C)C(=O)N[C@@H](CO)C(=O)N[C@@H](C)C(=O)NCC(=O)N1CCC[C@H]1C(=O)N[C@@H](CO)C(=O)N[C@@H](CO)C(=O)NCC(=O)N[C@@H](C)C(=O)N1CCC[C@H]1C(=O)N1CCC[C@H]1C(=O)N1CCC[C@H]1C(=O)N[C@@H](CO)C(N)=O)C(C)C)C(=O)O [Compound 32] (HELM PEPTIDE1{Y.[Aib].Q.G.T.F.T.S.D.Y.S.I.Y.L.E.K.K.A.A.K.E.F.V.E.W.L.L.S.A.G.P.S.S.G.A.P.P.P.S.[am]}|PEPTIDE2{[CCCCCCCCCCCCCCCC(=O)[*:2]].[gGlu]}$PEPTIDE1,PEPTIDE2,17:R3-2:R2$$$V2.0)	0.044 nM	0.015 nM	4.1 h	0.15 nM	0.015 nM	0.15 nM	–	–	–	–	–
YXQGTFTSDYSIYLEKKAAHDFVEWLLSA (HELM PEPTIDE1{Y.[Aib].Q.G.T.F.T.S.D.Y.S.I.Y.L.E.K.K.A.A.H.D.F.V.E.W.L.L.S.A.[am]}$$$$V2.0; SMILES CC[C@H](C)[C@H](NC(=O)[C@H](CO)NC(=O)[C@H](Cc1ccc(O)cc1)NC(=O)[C@H](CC(=O)O)NC(=O)[C@H](CO)NC(=O)[C@@H](NC(=O)[C@H](Cc1ccccc1)NC(=O)[C@@H](NC(=O)CNC(=O)[C@H](CCC(N)=O)NC(=O)C(C)(C)NC(=O)[C@@H](N)Cc1ccc(O)cc1)[C@@H](C)O)[C@@H](C)O)C(=O)N[C@@H](Cc1ccc(O)cc1)C(=O)N[C@@H](CC(C)C)C(=O)N[C@@H](CCC(=O)O)C(=O)N[C@@H](CCCCN)C(=O)N[C@@H](CCCCN)C(=O)N[C@@H](C)C(=O)N[C@@H](C)C(=O)N[C@@H](Cc1c[nH]cn1)C(=O)N[C@@H](CC(=O)O)C(=O)N[C@@H](Cc1ccccc1)C(=O)N[C@H](C(=O)N[C@@H](CCC(=O)O)C(=O)N[C@@H](Cc1c[nH]c2ccccc12)C(=O)N[C@@H](CC(C)C)C(=O)N[C@@H](CC(C)C)C(=O)N[C@@H](CO)C(=O)N[C@@H](C)C(N)=O)C(C)C) [Compound 15]	–	–	–	–	–	–	0.014 nM	0.058 nM	0.058 nM	0.025 nM	0.016 nM
